Measured values: US7144733B2, “Bio-synthetic photostimulators and methods of use” (Sloan-Kettering Institute for Cancer Research, priority 2001, dated 2006)
“Also recorded” adds a separate entry of the source.

Experiments:
hippocampal neurons = assay: Photostimulation of chARGed hippocampal neurons in primary culture, whole-cell current clamp; format: cell-based; settings: 50 μM AP-5 plus 10 μM CNQX together; n=5 neurons
Method: (§1) Synthetic all-trans retinal (Sigma) was diluted, from a 100-mM stock in DMSO, to 40 μM in the appropriate extracellular recording solution (see below) and allowed to bind to NinaE for 15 min in the dark. A mechanically shuttered (Uniblitz, Vincent Associates) Lambda DG-4 rapid wavelength changer (Sutter Instruments) delivered <2 mW of stimulating light without ultraviolet and infrared (E400LP, Chroma; Hot Mirror, Newport) components through 20×/0.4 (oocytes) or 40×/0.8 W (neurons) Zeiss Achroplan objectives. In some experiments, a short pre-illumination with red light (E600LP plus HQ625/40, both from Chroma) preceded the white-light stimulus. Light source and shutter were controlled through pClamp 8.0 (Axon Instruments) and MetaFluor 4.5 (Universal Imaging).
Hippocampal neurons obtained from E19 rats were grown in dissociated cultures (Yuste, Miller et al. “Synapto-pHluorins: chimeras between pH-sensitive mutants of green fluorescent protein and synaptic vesicle membrane proteins as reporters of neurotransmitter release,” Methods Enzymol 522–46 (2000)) and transfected with a calcium phosphate precipitate (pH 7.08) formed from a 1:1 mixture of CsCl-banded pChARGe-1 and pChARGe-2. Neurons were exposed to 4.2 μg/cm^2 of precipitated DNA for 20 minutes. Transfections were done on day 8 after plating, recordings on days 6–10 after transfection. Neurons were identified under DIC and epifluorescence illumination (to distinguish transfected from untransfected cells; FIG. 3) and placed under whole-cell current clamp before reconstitution of NinaE with retinal. Patch pipettes (˜2.5 MΩ) contained, in mM, 120 K-gluconate, 10 KCl, 5 ATP, 0.3 GTP, and 10 K-HEPES, pH 7.2. The extracellular recording solution contained, in mM, 119 NaCl, 2.5 KCl, 2 CaCl2, 1 MgCl2, 30 glucose, 25 Na-HEPES, pH 7.4. Membrane potentials were recorded with an Axoclamp-2B amplifier (Axon Instruments) in bridge mode and digitized at 5 kHz (Digidata 1200, Axon Instruments).
For intracellular recordings of light-evoked electrical activity, neurons were placed under whole-cell current clamp before reconstitution of NinaE with retinal. […] Exposure to white light increased the frequency of action potentials dramatically (FIGS. 4, A–D, and FIG. 5). Peak firing frequencies of 7.5 Hz (evaluated in sliding 2-s windows), equal to those generated by the direct injection of 200–250 pA of sustained depolarizing current into transfected and untransfected neurons, appeared after latency periods of a few hundred ms to several tens of s (n=18 neurons). […]

Xenopus oocytes = assay: Light-evoked photocurrents in voltage-clamped Xenopus oocytes expressing Drosophila phototransduction proteins; format: cell-based
Method: as §1
Stage VI oocytes were microinjected with the specified mRNA mixtures, which were adjusted to keep the doses of individual messages constant at 2–4 fmol/oocyte. Photocurrents were recorded at −80 mV with a two-electrode voltage-clamp amplifier (Axoclamp-2B, Axon Instruments) 2–4 days after mRNA injection. Electrodes (2–3 MΩ) were filled with 3 M KCl; the extracellular recording solution (Barth's Saline) contained, in mM, 87.5 NaCl, 2 KCl, 2.4 NaHCO3, 2 CaCl2, 1 MgCl2, 5 Tris-HCl, pH 7.2. Signals were externally amplified (CyberAmp 380, Axon Instruments) before digitization at 100 Hz (Digidata 1200, Axon Instruments). To block IP3-sensitive Ca^2+ stores where indicated, 20 μM xestospongin C (Gafni et al., 1997; Calbiochem) was present throughout the experiment, beginning with the retinal load.
Unliganded NinaE in the membrane of voltage-clamped oocytes was reconstituted in the dark with 40 μM synthetic all-trans retinal, to form a metarhodopsin-like intermediate that could be further photoconverted (Hillman et al., 1983; Kiselev and Subramaniam, 1994; Ranganathan and Stevens, 1995) to rhodopsin. […]

SMILES	EPSPs in the membrane potential record under glutamate receptor block (hippocampal neurons)	light-induced action potentials under glutamate receptor block (hippocampal neurons)	dependence of light-evoked current responses on reconstitution of NinaE with retinal (Xenopus oocytes; 40 μM all-trans retinal, 15 min in the dark, n=9 oocytes)	photocurrent over time after a single retinal load, in the absence of exogenous retinal (Xenopus oocytes; NinaE reconstituted with 40 μM all-trans retinal for 15 min, then retinal-free perfusion for hours, n=8 oocytes)	light-evoked current responses in the presence of xestospongin C (Xenopus oocytes; 20 μM xestospongin C present throughout, oocytes expressing 10 photoreceptor proteins, n=5 oocytes)
NC(CCCP(=O)(O)O)C(=O)O (racemic) [AP-5, D,L-2-amino-5-phosphonovaleric acid]	vanished; also recorded: elimination	persisted	–	–	–
N#Cc1cc2c(cc1[N+](=O)[O-])=NC(=O)C(=O)N=2 [CNQX, 6-cyano-7-nitroquinoxaline-2,3-dione]	vanished; also recorded: elimination	persisted	–	–	–
CC1=C(/C=C/C(C)=C/C=C/C(C)=C/C=O)C(C)(C)CCC1 [all-trans retinal]	–	–	required	no attenuation	–
C1CCC[C@H]2CCCN3CC[C@@H](CCCCCC[C@@H]4CCCN5CC[C@@H](CC1)O[C@@H]45)O[C@@H]23 [xestospongin C]	–	–	–	–	inhibited
